From patent US9029337B2, “Modulation of factor 7 expression” (Isis Pharmaceuticals, Inc., priority 2007, dated 2015)
Strand notation (5' to 3'): a small letter for the sugar, then the base; units joined by * are phosphorothioate-linked, units joined directly phosphodiester-linked; [ ] holds rarer units or linkages, { } end groups; capitals alone tell only the bases. e = 2'-O-(2-methoxyethyl) (MOE); [5mC] = 5-methylcytosine; d = 2'-deoxy (DNA)

system: human Factor 7 mRNA; experiment: Antisense inhibition of human Factor 7 mRNA in HepB3 cells, 50 nM antisense oligonucleotide, lipofectin; format: cell-based; conditions: oligonucleotides targeted to nucleobases 11830 to 11869 of SEQ ID NO: 1 (Table 9)
Summary of the method: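 Percent inhibition, untreated cells as reference: derived from RNA collected about 24 hours post-transfection of 4,000-cell wells, with the human RTS 2927 primer probe set and adjustment for total RNA content (RIBOGREEN®).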

“422157 (antisense eT*eG*eG*dT*d[5mC]*dA*dG*dG*dG*d[5mC]*dT*dG*dG*dT*dT*dT*dT*eG*eG*eA) [compound 422157]” and “422158 (antisense eA*eT*eG*dG*dT*d[5mC]*dA*dG*dG*dG*d[5mC]*dT*dG*dG*dT*dT*dT*eT*eG*eG) [compound 422158]” are the same in “% Inhibition (human Factor 7 mRNA levels)” value (shortened to “% Inhibition”): 49% for the first, 49% for the second.

Compared with “422159 (antisense eA*eA*eT*dG*dG*dT*d[5mC]*dA*dG*dG*dG*d[5mC]*dT*dG*dG*dT*dT*eT*eT*eG) [compound 422159]”, “422160 (antisense e[5mC]*eA*eA*dT*dG*dG*dT*d[5mC]*dA*dG*dG*dG*d[5mC]*dT*dG*dG*dT*eT*eT*eT) [compound 422160]” is lower in “% Inhibition” value: 45% for the first, 42% for the second.

Going from “422161 (antisense eA*e[5mC]*eA*dA*dT*dG*dG*dT*d[5mC]*dA*dG*dG*dG*d[5mC]*dT*dG*dG*eT*eT*eT) [compound 422161]” to “422162 (antisense eG*eA*e[5mC]*dA*dA*dT*dG*dG*dT*d[5mC]*dA*dG*dG*dG*d[5mC]*dT*dG*eG*eT*eT) [compound 422162]”, the “% Inhibition” value rises from 53% to 59%.

First: 422163 (antisense eA*eG*eA*d[5mC]*dA*dA*dT*dG*dG*dT*d[5mC]*dA*dG*dG*dG*d[5mC]*dT*eG*eG*eT) [compound 422163]
Second: 422164 (antisense eG*eA*eG*dA*d[5mC]*dA*dA*dT*dG*dG*dT*d[5mC]*dA*dG*dG*dG*d[5mC]*eT*eG*eG) [compound 422164]
The “% Inhibition” value of the first is lower: 56% for the first, 64% for the second.

Compared with “422165 (antisense eG*eG*eA*dG*dA*d[5mC]*dA*dA*dT*dG*dG*dT*d[5mC]*dA*dG*dG*dG*e[5mC]*eT*eG) [compound 422165]”, “422166 (antisense eA*eG*eG*dA*dG*dA*d[5mC]*dA*dA*dT*dG*dG*dT*d[5mC]*dA*dG*dG*eG*e[5mC]*eT) [compound 422166]” is higher in “% Inhibition” value: 57% for the first, 63% for the second.

First: 422167 (antisense eG*eA*eG*dG*dA*dG*dA*d[5mC]*dA*dA*dT*dG*dG*dT*d[5mC]*dA*dG*eG*eG*e[5mC]) [compound 422167]
Second: 422168 (antisense eT*eG*eA*dG*dG*dA*dG*dA*d[5mC]*dA*dA*dT*dG*dG*dT*d[5mC]*dA*eG*eG*eG) [compound 422168]
The “% Inhibition” value of the first is higher: 53% for the first, 30% for the second.

First: 422169 (antisense e[5mC]*eT*eG*dA*dG*dG*dA*dG*dA*d[5mC]*dA*dA*dT*dG*dG*dT*d[5mC]*eA*eG*eG) [compound 422169]
Second: 422170 (antisense eG*e[5mC]*eT*dG*dA*dG*dG*dA*dG*dA*d[5mC]*dA*dA*dT*dG*dG*dT*e[5mC]*eA*eG) [compound 422170]
The “% Inhibition” value of the first is higher: 56% for the first, 28% for the second.

First: 422171 (antisense eG*eG*e[5mC]*dT*dG*dA*dG*dG*dA*dG*dA*d[5mC]*dA*dA*dT*dG*dG*eT*e[5mC]*eA) [compound 422171]
Second: 422172 (antisense eT*eG*eG*d[5mC]*dT*dG*dA*dG*dG*dA*dG*dA*d[5mC]*dA*dA*dT*dG*eG*eT*e[5mC]) [compound 422172]
The “% Inhibition” value of the first is higher: 61% for the first, 39% for the second.

First: 422173 (antisense e[5mC]*eT*eG*dG*d[5mC]*dT*dG*dA*dG*dG*dA*dG*dA*d[5mC]*dA*dA*dT*eG*eG*eT) [compound 422173]
Second: 422174 (antisense eG*e[5mC]*eT*dG*dG*d[5mC]*dT*dG*dA*dG*dG*dA*dG*dA*d[5mC]*dA*dA*eT*eG*eG) [compound 422174]
The “% Inhibition” value of the first is lower: 51% for the first, 55% for the second.

same assay, conditions: oligonucleotides targeted to nucleobases 13760 to 13789 of SEQ ID NO: 1 (Table 10)

With “422175 (antisense e[5mC]*eG*e[5mC]*d[5mC]*dG*dG*d[5mC]*dT*d[5mC]*dT*dG*d[5mC]*dT*d[5mC]*dA*dT*d[5mC]*e[5mC]*e[5mC]*e[5mC]) [compound 422175]” the “% Inhibition” value was 69%.
